Laboratory results reported in patent publication US6579856B2, “Inhibition of stress activated protein kinase (SAPK) pathway and sensitization of cells to cancer therapies” (priority 1997, dated 2003).
Numbering of substitutions follows the chain as printed. In names and notes the source's numbering stands. Read-outs that look alike come from different tables or passages of the source.

Assays:
Type in all cases: cell-based
[1] = test system: SAPK (JNK); assay: SAPK (JNK) assay in T98G cells; conditions: for increase in SAPK (JNK) activity: T98G cells incubated with 250, 500 or 1000 μM for 1 hr
Description: T98G glioblastoma cells were maintained in Dulbecco's modified minimal medium containing 5% fetal calf serum. SAPK (JNK) assays were performed as described by Hibi et al. (supra, 1993). c-jun and dn-jun expression were quantitated using the methods and antibodies described by Grover-Bardwick et al. (Carcinogenesis 15:1667-1674 (1994), which is incorporated herein by reference).
Cisplatin, but not transplatin, forms covalent crosslinks between adjacent guanine or guanine-adenine residues. […] As a control, UV-C irradiation was performed and similarly produced a dose-dependent increase in SAPK activity.

[2] = test system: T98G glioblastoma cells; assay: Cell viability (MTS method), T98G cells; conditions: for IC50: 1 hr exposure, viability 5 days later, read-out: IC-50 for cisplatin
Description: (§1) Cell viability was determined using the MTS method (Promega Corp.; Madison Wis.), measuring the […] of the formazan product 1 hr after adding the MTS (Gjerset et al., Mol. Carcin. 14:275-285 (1995), which is incorporated herein by reference). Cells were seeded into 96 well plates. After 24 hr, various concentrations of cisplatin or transplatin was added and incubation was continued for 1 hr. Medium was then removed and replaced with fresh medium and cell viability was determined 5 days later. Experiments were performed in quadruplicate; cell viability is expressed as the ratio of the viable cells following treatment to viable untreated cells.
The IC-50 for cisplatin was determined using the T98G cells that express dn-jun, control T98G cells and T98G cells stably transfected with the corresponding empty vector. […] In comparison, expression of dn-jun in T98G cells decreased the IC-50 to 21 μM, which represents a 7-fold increase in sensitivity.

[3] = test system: T98G cells; assay: PCR-stop assay of cisplatin-DNA adduct formation and repair
Text: The PCR-stop assay was used to quantitate cisplatin-DNA adduct formation and subsequent repair (Horton et al., Nucl. Acids. Res. 23:3810-3815 (1995), which is incorporated herein by reference). The assay is based on the observation that the efficiency of amplification of cisplatin-treated DNA is inversely proportional to the degree of platination. […] DNA was amplified quantitatively to produce a 2.7 kb product of the hypoxanthine phosphoribosyl transferase (HPRT) gene and a 0.15 kb nested fragment of the HPRT gene using ^32P-end labeled primers: 5′-[…]-3′(5′ primer; SEQ ID NO: 3) and 5′-[…]-3′ (3′ primer; SEQ ID NO: 4), for the 2.7 kb product; 5′-[…]-3′(5′ nested primer; SEQ ID NO: 5) and the above 3′ primer (SEQ ID NO: 4) for the 0.15 kb product. The 0.15 kb product contains undetectable levels of DNA damage under the present conditions and serves as an internal PCR control and as the basis for normalization of the amount of amplification of the 2.7 kb product. The number of lesions per 2.7 kb product was calculated as […] (cpm damaged DNA/cpm undamaged DNA).
As a control, […], which inhibits DNA repair by inhibiting ADP-ribosylation, was added with cisplatin.

[4] = test system: PC3 prostate carcinoma cells; assay: Cell viability, PC3 cells; conditions: for IC50: read-out: IC-50 (cisplatin)
Description: as §1
PC3 prostate carcinoma cells were genetically modified to express dn-jun or a second dominant negative c-jun, Tam-67, both of which were under control of the metallothionein promoter (Brown et al., Oncogene 9:791-799 (1994), which is incorporated herein by reference).

[5] = test system: AP-1; assay: Basal AP-1 activity in dn-jun transfected T98G cells; conditions: T98G cells stably expressing dn-jun
Text: (§2) T98G cells were stably transfected with a cDNA encoding the dn-jun (Smeal et al., supra, 1991; Smeal et al., supra, 1992) and clonal lines were obtained. Expression of dn-jun had no effect on basal AP-1 activity or on the enzyme activity of SAPK. In contrast, dn-jun expression inhibited phosphorylation-dependent activation of transcription.

[6] = test system: phosphorylation-dependent activation of transcription; assay: Phosphorylation-dependent activation of transcription in dn-jun transfected T98G cells; conditions: T98G cells stably expressing dn-jun
Text: as §2

[7] = test system: U87 human glioblastoma cells; assay: Cell viability, U87 cells; conditions: U87 cells expressing dn-jun vs parental U87 cells
Description: as §1
(§3) In other experiments, U87 human glioblastoma cells and MCF-7 breast cancer cells were stably transfected with the vector expressing dn-jun and clonal lines were isolated.

[8] = test system: MCF-7 breast cancer cells; assay: Cell viability, MCF-7 cells; conditions: MCF-7 cells expressing dn-jun vs parental cells
Description: as §1, §3

[9] = ABZ added with cisplatin, 6 hr recovery period

Molecule: N.N.[Cl][Pt][Cl] [cisplatin]
- increase in SAPK (JNK) activity [1]: up to 10 fold
- IC50 ([2]; T98G cells expressing dn-jun): 21 µM
- IC50 ([2]; control (untransfected) T98G cells): 147 µM
- DNA damage ([3]; DNA isolated immediately after 1 hr treatment with 0, 100 or 200 μM): increasing levels of DNA damage
- IC50 ([4]; PC3 cells expressing dn-jun): 18 µM
- IC50 ([4]; control PC3 cells): 109 µM

Molecule: N.N.[Cl][Pt+2][Cl] [transplatin]
- increase in SAPK (JNK) activity [1]: no effect was observed

Molecule: Nc1ccc(-c2ccc(N)cc2N)cc1 [ABZ, 2-aminobenzidine]
- DNA repair [3, 9]: no repair was observed
- level of DNA damage [3, 9]: substantially increased

B1: dn-jun: dominant negative mutant of c-jun containing alanine-63 and alanine-73 substitutions; cannot be phosphorylated by SAPK (protein, UniProt P05412 1-331, looked up, variant S63A S73A)
Transcription factor Jun: MTAKMETTFYDDALNASFLPSESGPYGYSNPKILKQSMTLNLADPVGSLKPHLRAKNSDLLTAPDVGLLKLAAPELERLIIQSSNGHITTTPTPTQFLCPKNVTDEQEGFAEGFVRALAELHSQNTLPSVTSAAQPVNGAGMVAPAVASVAGGSGSGGFSASLHSEPPVYANLSNFNPGALSSGGGAPSYGAAGLAFPAQPQQQQQPPHHLPQQMPVQHPRLQALKEEPQTVPEMPGETPPLSPIDMESQERIKAERKRMRNRIAASKCRKRKLERIARLEEKVKTLKAQNSELASTANMLREQVAQLKQKVMNHVNSGCQLMLTQQLQTF
- enzyme activity of SAPK ([1]; T98G cells stably expressing dn-jun): no effect
- basal AP-1 activity [5]: no effect
- phosphorylation-dependent activation of transcription [6]: inhibited
- increased sensitivity to cisplatin [7]: 2.5 fold
- increased sensitivity to cisplatin [8]: 3 fold
- increased sensitivity to cisplatin ([4]; PC3 cells expressing dn-jun vs control cells): greater than 7 fold
- increased sensitivity to cisplatin ([4]; PC3 cells expressing dn-jun vs vector control cells): greater than 9 fold

B2: c-jun: c-jun transcription factor, the SAPK substrate, with increased expression in T98G cells (protein, UniProt P05412 1-331, looked up)
Transcription factor Jun: B1 Transcription factor Jun with A63S, A73S
- viability of cells to cisplatin exposure ([2]; increased expression of c-jun in T98G cells): somewhat increased
